Source: paper PMC6222691, “Isoxazolidine Conjugates of N3-Substituted 6-Bromoquinazolinones—Synthesis, Anti-Varizella-Zoster Virus, and Anti-Cytomegalovirus Activity” (Molecules : A Journal of Synthetic Chemistry and Natural …, 2018)
Converted amounts (≈) assume the structure as drawn. Where two headings read alike, the source gives them in different places.

Columns and labels:
[1] = test system: L1210, CEM, HeLa, HMEC-1 cell lines; assay: Cytostatic activity against the tested cell lines; type: cell-based
[2] = test system: a wide variety of DNA and RNA viruses; assay: Antiviral screening against a wide variety of DNA and RNA viruses; type: cell-based
[3] = test system: HEL cells; conditions: minimum cytotoxic concentration
[4] = test system: human cytomegalovirus Davis Strain; assay: Antiviral activity against human cytomegalovirus Davis strain in HEL cell cultures; type: cell-based
[5] = test system: human T-lymphocyte (CEM); assay: Inhibition of proliferation of human T-lymphocyte CEM cells; type: cell-based; conditions: 72 h, read-out: IC50 CEM
[6] = test system: human cytomegalovirus AD-169 Strain; assay: Antiviral activity against human cytomegalovirus AD-169 strain in HEL cell cultures; type: cell-based
[7] = test system: immortalized human dermal microvascular endothelial cells (HMEC-1); assay: Inhibition of proliferation of HMEC-1 cells; type: cell-based; conditions: HMEC-1, read-out: IC50 HMEC-1
[8] = test system: TK+ VZV Strain (OKA); assay: microbe, parasite or virus in culture; type: cell-based, varicella-zoster virus; conditions: Human alphaherpesvirus 3, HEL, read-out: Antiviral Activity EC50 TK+ VZV Strain (OKA)
[9] = test system: human cervix carcinoma (HeLa); assay: Inhibition of proliferation of human cervix carcinoma HeLa cells; type: cell-based; conditions: 96 h, read-out: IC50 HeLa
[10] = test system: murine leukemia (L1210); assay: Inhibition of proliferation of murine leukemia L1210 cells; type: cell-based; conditions: Mus musculus, L1210, 48 h, read-out: IC50 L1210
[11] = test system: TK− VZV Strain (07-1); assay: microbe, parasite or virus in culture; type: cell-based, varicella-zoster virus; conditions: Human alphaherpesvirus 3, HEL, read-out: Antiviral Activity EC50 TK− VZV Strain (07-1)
[12] = test system: influenza A virus (H5N1); conditions: cited from earlier work
[13] = in vitro; conditions: human
[14] = test system: tobacco mosaic virus (TMV); set-up: method as in PMID 18259148; conditions: in vivo; cited from earlier work
[15] = test system: vaccinia virus (VACV); conditions: cited from earlier work
[16] = test system: herpes simplex virus 1 (HSV-1); set-up: method as in PMID 21969760; conditions: cited from earlier work
[17] = test system: herpes simplex virus 2 (HSV-2); set-up: method as in PMID 21969760; conditions: cited from earlier work
[18] = test system: human cytomegalovirus (HCMV); assay: Antiviral activity against HCMV, AD-169 and Davis strains (text summaries); type: cell-based; conditions: Human betaherpesvirus 5, AD169; HEL cells; both AD-169 and Davis strains; read-out: EC50 against HCMV (range over AD-169 and Davis strains)
[19] = test system: vaccinia virus; conditions: E6SM cell cultures; cited from earlier work
[20] = test system: PI4KIIIα; set-up: method as in PMID 23944386; conditions: cited from earlier work
[21] = Human betaherpesvirus 5, HEL; read-out: Antiviral Activity EC50 Davis Strain
[22] = Human betaherpesvirus 5, AD169, HEL; read-out: Antiviral Activity EC50 AD-169 Strain

SMILES: CCOP(=O)(OCC)[C@H]1C[C@@H](c2nc3ccc(Br)cc3c(=O)[nH]2)ON1C (relative stereo) [cis-11a, Diethyl cis-[5-(6-bromo-4-oxo-3,4-dihydroquinazolin-2-yl)-2-methylisoxazolidin-3-yl]phosphonate]
- Inhibition of proliferation of the tested cell lines (in words) [1]: did not inhibit proliferation
- Activity against tested viruses (in words) [2]: not active
- Cytotoxicity Cell Morphology MCC ([3]; Table 2 (VZV experiments)): >100 μM
- Cytotoxicity Cell Morphology MCC ([3]; Table 3 (HCMV experiments)): 20 μM
- EC50 [4, 21]: 100 µM
- IC50 [5]: 242 ± 7 µM
- EC50 [6, 22]: > 100 µM
- IC50 [7]: 140 ± 54 µM
- EC50 [8]: > 100 µM
- IC50 [9]: > 250 µM
- IC50 [10]: > 250 µM
- EC50 [11]: > 100 µM

SMILES: CCNC(=S)N/N=C/c1nc2ccc(I)cc2c(=O)n1-c1cccc(C(F)(F)F)c1 [compound 5]
- inhibition rate against H5N1 [12]: 47%

SMILES: O=C(N/N=C/c1nc2ccc(I)cc2c(=O)n1-c1cccc(C(F)(F)F)c1)c1ccncc1 [compound 6]
- inhibition rate against H5N1 [12]: 25%

SMILES: CCOP(=O)(OCC)[C@H]1C[C@H](c2nc3ccc(Br)cc3c(=O)n2CC)ON1C (relative stereo) [trans-11k, Diethyl trans-{5-[6-bromo-3-ethyl-4-oxo-3,4-dihydroquinazolin-2-yl]-2-methylisoxazolidin-3-yl}phosphonate]
- Inhibition of proliferation of the tested cell lines (in words) [1]: did not inhibit proliferation
- Activity against tested viruses (in words) [2]: not active
- Cytotoxicity Cell Morphology MCC ([3]; Table 2 (VZV experiments)): 100 μM
- Cytotoxicity Cell Morphology MCC ([3]; Table 3 (HCMV experiments)): 20 μM
- EC50 [4, 21]: 44.7 µM
- EC50 [6, 22]: > 20 µM
- EC50 [8]: > 20 µM
- EC50 [11]: > 20 µM

SMILES: Cc1ccc(C(=O)/C=C/c2nc3ccc(I)cc3c(=O)n2-c2cccc(C(F)(F)F)c2)cc1 [compound 4]
- inhibition rate against H5N1 [12]: 38%

SMILES: Nc1nc(O)c2ncn(COC(CO)CO)c2n1 [Ganciclovir, reference compound]
- Cytotoxicity Cell Morphology MCC ([3]; Table 3 (HCMV experiments)): >350 μM
- EC50 ([4]; Human betaherpesvirus 5, HEL, read-out: Antiviral Activity EC50 Davis Strain): 7.7 ± 0.9 µM
- EC50 ([6]; Human betaherpesvirus 5, AD169, HEL, read-out: Antiviral Activity EC50 AD-169 Strain): 16.9 ± 6.9 µM
- CC50 [13]: > 350 µM

SMILES: Cc1nc2ccc(Br)cc2c(=O)n1/N=C/c1ccccc1C(F)(F)F [compound 3, 2-methyl-3-(substituted-benzalamino)-4(3H)-quinazolinone]
- curative effects against TMV [14]: 54%

SMILES: O=C(O)c1cc(Br)ccc1-n1c(-c2ccccc2)nc2ccc(Br)cc2c1=O [compound 1, 5-bromo-2-(6-bromo-4-oxo-2-phenyl-4H-quinazolin-3-yl)-benzoic acid]
- EC50 vaccinia virus (VACV) [15]: 12 µg/mL (≈ 24 µM)
- EC50 HSV-1 [16]: 12 µg/mL (≈ 24 µM)
- EC50 HSV-2 [17]: 12 µg/mL (≈ 24 µM)

SMILES: Nc1ccn(C[C@@H](CO)OCP(=O)(O)O)c(=O)n1 [Cidofovir, reference compound]
- Cytotoxicity Cell Morphology MCC ([3]; Table 3 (HCMV experiments)): >300 μM
- EC50 [4, 21]: 1.7 ± 0.4 µM
- EC50 [6, 22]: 1.5 ± 0.2 µM
- EC50 [18]: 1.5 to 1.7 µM
- CC50 [13]: > 300 µM

SMILES: O=c1[nH]cc(F)c(=O)[nH]1 [5-Fluorouracil, reference compound]
- IC50 ([5]; cell proliferation, three days): 18 ± 5 µM
- IC50 ([9]; cell proliferation, four days): 0.54 ± 0.12 µM
- IC50 ([10]; cell proliferation, two days): 0.33 ± 0.17 µM

SMILES: CCOP(=O)(OCC)[C@H]1C[C@H](c2nc3ccc(Br)cc3c(=O)n2Cc2ccc([N+](=O)[O-])cc2)ON1C (relative stereo) [trans-11e, Diethyl trans-{5-[6-bromo-3-(4-nitrobenzyl)-4-oxo-3,4-dihydroquinazolin-2-yl]-2-methylisoxazolidin-3-yl}phosphonate]
- Cytotoxicity Cell Morphology MCC ([3]; Table 2 (VZV experiments)): 20 μM
- Cytotoxicity Cell Morphology MCC ([3]; Table 3 (HCMV experiments)): 100 μM
- EC50 [4, 21]: > 20 µM
- IC50 [5]: 17 ± 12 µM
- EC50 [6, 22]: > 20 µM
- IC50 [7]: 26 ± 6 µM
- EC50 [8]: 6.84 µM
- IC50 [9]: 24 ± 9 µM
- IC50 [10]: 18 µM
- EC50 [11]: 7.51 µM

SMILES: CCOP(=O)(OCC)[C@H]1C[C@H](c2nc3ccc(Br)cc3c(=O)[nH]2)ON1C (relative stereo) [trans-11a, Diethyl trans-[5-(6-bromo-4-oxo-3,4-dihydroquinazolin-2-yl)-2-methylisoxazolidin-3-yl]phosphonate]
- Inhibition of proliferation of the tested cell lines (in words) [1]: did not inhibit proliferation
- Activity against tested viruses (in words) [2]: not active
- Cytotoxicity Cell Morphology MCC ([3]; Table 2 (VZV experiments)): >100 μM
- Cytotoxicity Cell Morphology MCC ([3]; Table 3 (HCMV experiments)): 100 μM
- EC50 [4, 21]: > 100 µM
- IC50 [5]: 148 ± 2 µM
- EC50 [6, 22]: > 100 µM
- IC50 [7]: 85 ± 13 µM
- EC50 [8]: > 100 µM
- IC50 [9]: 196 ± 20 µM
- IC50 [10]: 126 ± 19 µM
- EC50 [11]: 66.9 µM

SMILES: Nc1nc2c(ncn2COCCO)c(=O)[nH]1 [Acyclovir]
- CC50 [13]: > 350 µM

SMILES: O=c1[nH]c(=O)n([C@H]2C[C@H](O)[C@@H](CO)O2)cc1/C=C/Br [Brivudin, reference compound]
- Cytotoxicity Cell Morphology MCC ([3]; Table 2 (VZV experiments)): >300 μM
- EC50 [8]: 0.023 ± 0.008 µM
- CC50 [13]: > 300 µM
- EC50 [11]: 31.9 ± 16.1 µM

SMILES: CCc1nc(-n2c(-c3ccccc3)nc3ccc(Br)cc3c2=O)nc(N)c1-c1ccc(Cl)cc1 [compound 2]
- MIC vaccinia virus [19]: 1.92 µg/mL (≈ 3.6 µM)

SMILES: CCOP(=O)(OCC)[C@H]1C[C@H](c2nc3ccc(Br)cc3c(=O)n2C)ON1C (relative stereo) [trans-11j, Diethyl trans-{5-[6-bromo-3-methyl-4-oxo-3,4-dihydroquinazolin-2-yl]-2-methylisoxazolidin-3-yl}phosphonate]
- Inhibition of proliferation of the tested cell lines (in words) [1]: did not inhibit proliferation
- Activity against tested viruses (in words) [2]: not active
- Cytotoxicity Cell Morphology MCC ([3]; Table 2 (VZV experiments)): 20 μM
- Cytotoxicity Cell Morphology MCC ([3]; Table 3 (HCMV experiments)): 20 μM
- EC50 [4, 21]: > 100 µM
- IC50 [5]: 128 ± 21 µM
- EC50 [6, 22]: > 20 µM
- IC50 [7]: > 250 µM
- EC50 [8]: > 4 µM
- IC50 [9]: 175 ± 105 µM
- IC50 [10]: 138 ± 19 µM
- EC50 [11]: > 4 µM

SMILES: COc1ncc(-c2ccc3nc(N)n(-c4ccccc4C(F)(F)F)c(=O)c3c2)cc1S(=O)(=O)Nc1ccc(F)cc1F (atropisomer, axis not shown; (aS)) [(aS)-9]
- pIC50 PI4KIIIα [20]: 8.3
